According to US8435960B2, “Devices for improved wound management” (Lakewood-Amedex, Inc., priority 1998, dated 2013):
Strand notation (5' to 3'): a small letter for the sugar, then the base; units joined by * are phosphorothioate-linked, units joined directly phosphodiester-linked; [ ] holds rarer units or linkages, { } end groups; capitals alone tell only the bases. [invdT] = inverted (3'-3') thymidine; {BuOH} = butanol end-blocking group; m = 2'-O-methyl

Columns and labels:
S. aureus = experiment: Stationary growth assay, S. aureus; type: cell-based; conditions: S. aureus 10^7 CFU/ml start, 32 A260 units
[1] = system: P. aeruginosa ACC # 10145; experiment: Limited nutrient growth study, P. aeruginosa; type: cell-based; conditions: approx. 24 hours; for Inhibition (%): oligonucleotide pH 1.5, 32 A260 units
S. aureus ACC # 13301 = experiment: Limited nutrient growth study, S. aureus; type: cell-based; conditions: approx. 24 hours; for Inhibition (%): oligonucleotide pH 1.5, 32 A260 units
[2] = system: Pseudomonas aeruginosa (Strain Utah 4); experiment: Burn wound infection model, subcutaneous (systemic) infection; type: in vivo, BALB/c female mice
[3] = system: Pseudomonas aeruginosa (Strain Utah 4); experiment: Burn wound infection model, topical infection and topical treatment; type: in vivo, BALB/c female mice; conditions: for % Survival / No. Survivors/Total: topical infection, topical treatment
Strep. mutans = experiment: Stationary growth assay, Strep. mutans; type: cell-based; conditions: 16 A260 units; for CFU/ml: Strep. mutans 10^7 CFU/ml start; for Inhibition (%): Strep. mutans, approx. 24 hours
Pseudomonas aeruginosa [4] = experiment: Topical Pseudomonas burn model of infection in immuno-compromised mice (Example 9); type: in vivo; conditions: topical treatment at 4 hrs. and 8 hrs. post infection, pH 1.5
Strep. pyogenes = experiment: Treatment of Strep. pyogenes skin infection on a dog; type: in vivo; conditions: cut on abdomen, Neosporin for 3 days, nucleic acid pH 1.5, two treatments separated by 12 hours
Staphylococcal furuncle = experiment: Treatment of Staphylococcal furuncle in a human subject; type: in vivo
Pseudomonas aeruginosa [5] = experiment: Systemic Pseudomonas burn model of infection (Example 9); type: in vivo, mice
Pseudomonas aeruginosa [6] = experiment: Topical treatment of outer ear infections in chinchillas; type: in vivo
[7] = pH of nucleic acid 3, 32 A260 units
[8] = pH of nucleic acid 4, 32 A260 units
[9] = pH of nucleic acid 5, 32 A260 units
[10] = pH of nucleic acid 7, 32 A260 units
[11] = topical treatment 1800 A/ml, individual mice # 1-3, NG = no growth
[12] = after 16 hours from the initial treatment
[13] = mice, burn wound infection with 5 LD50 P. aeruginosa, summary of all studies

SEQ ID NO: 1: 2′-O-methyl ribonucleotides, phosphodiester linkage, 5′ and 3′ inverted T end-blocked, sequence CGCCATTGG (all 2'-O-methyl, all phosphodiester, 5' [invdT], 3' [invdT], T or U not given here)
CFU/ml (S. aureus; pH of nucleic acid 2, approx. 24 hours): 0 CFU/ml | CFU/ml (S. aureus; pH of nucleic acid 3): 10^3 CFU/ml | CFU/ml (S. aureus; pH of nucleic acid 4): 10^6 CFU/ml | CFU/ml (S. aureus; pH of nucleic acid 5): 10^7 CFU/ml | CFU/ml (S. aureus; pH of nucleic acid 7): 10^7 CFU/ml | Inhibition of Growth (%) ([1]; pH of nucleic acid 2, 32 A260 units): 100% | Inhibition of Growth (%) [1, 7]: 100% | Inhibition of Growth (%) [1, 8]: 100% | Inhibition of Growth (%) [1, 9]: 0% | Inhibition of Growth (%) [1, 10]: 0% | Inhibition of Growth (%) (S. aureus ACC # 13301; pH of nucleic acid 2, 32 A260 units, A625): 100% | Inhibition of Growth (%) (S. aureus ACC # 13301; [7]): 100% | Inhibition of Growth (%) (S. aureus ACC # 13301; [8]): 100% | Inhibition of Growth (%) (S. aureus ACC # 13301; [9]): 16% | Inhibition of Growth (%) (S. aureus ACC # 13301; [10]): 0%

HO—CH2CH2CH2CH2-CgC•CAU—CH2CH2CH2CH2—OH [compound 7]
# Survivors/Total Animals Tested ([2]; mouse, in vivo): 2/5 | % Survival ([2]; mouse, in vivo): 40%

CO[C@@H]1[C@H](O)[C@@H](COP(=O)(O)O)O[C@H]1n1ccc(=O)[nH]c1=O [compound 6, 2′-O-methyl Uridine monophosphate]
# Survivors/Total Animals Tested ([2]; mouse, in vivo): 0/5 | % Survival ([2]; mouse, in vivo): 0% | therapeutic activity ([2]; mouse, in vivo): did not appear to show any therapeutic activity

HO—CH2CH2CH2CH2-AUG-CH2CH2CH2CH2—OH [compound 2]
# Survivors/Total Animals Tested ([2]; mouse, in vivo): 3/5 | % Survival ([2]; mouse, in vivo): 60%

dihydroxydibutyldiphophate 2′-O-methyl uridine [BUB]
# Survivors/Total Animals Tested ([2]; mouse, in vivo): 7/8 | % Survival ([2]; mouse, in vivo): 87.5%

HO—CH2CH2CH2CH2-ACg•CgC•CAU•Ugg-CH2CH2CH2CH2—OH [B7]
% Survival ([3]; concentration 1800 A/ml): 40% | No. Survivors/Total ([3]; concentration 1800 A/ml): 2/5 | # Survivors/Total Animals Tested ([2]; mouse, in vivo): 2/5 | % Survival ([2]; mouse, in vivo): 40%

Homopolymer, 12 G: GGGGGGGGGGGG, 2′-O-methyl substituted ribonucleotides phosphodiester linked, 3′ and 5′ butanol end-blocking ({BuOH}-mGmGmGmGmGmGmGmGmGmGmGmG-{BuOH})
Inhibition (%) [1]: 100% | Inhibition (%) (S. aureus ACC # 13301): 100%

HO—CH2CH2CH2CH2-ACg•CgC•CAU•Ugg-CH2CH2CH2CH2—OH [B2]
% Survival ([3]; concentration 335 A/ml): 40% | No. Survivors/Total ([3]; concentration 335 A/ml): 2/5 | % Survival ([3]; concentration 1800 A/ml): 90% | No. Survivors/Total ([3]; concentration 1800 A/ml): 9/10 | Microbiological quantitation of tissues, Blood [3, 11]: devoid of any detectable CFUs | Microbiological quantitation of tissues, Livers [3, 11]: two out of three | Microbiological quantitation of tissues, Spleens [3, 11]: devoid of any detectable CFUs | # Survivors/Total Animals Tested ([2]; mouse, in vivo): 28/30 | No. Survivors/Total Animals ([2]; mouse, in vivo): 5/5 | survival rate ([2]; mouse, in vivo): 100% | survival rate (efficacy) ([2]; mouse, in vivo, iv): 80% | survival rate (efficacy) ([2]; mouse, in vivo, sc): 40%

114.6: 2′-O-methyl substituted ribonucleotides phosphodiester linked with 5′ and 3′ inverted T end-blocking, sequence CGCCAT
CFU/ml (Strep. mutans; pH 3): 0 CFU/ml | CFU/ml (Strep. mutans; pH 7): 10^7 CFU/ml | Inhibition (%) (Strep. mutans; pH 3): 100% | Inhibition (%) (Strep. mutans; pH 7): 0%

Homopolymer, 12 C: CCCCCCCCCCCC, 2′-O-methyl substituted ribonucleotides phosphodiester linked, 3′ and 5′ butanol end-blocking ({BuOH}-mCmCmCmCmCmCmCmCmCmCmCmC-{BuOH})
Inhibition (%) [1]: 100% | Inhibition (%) (S. aureus ACC # 13301): 100%

SEQ ID NO: 9: ACGCGCCATTAT, 2′-O-methyl substituted ribonucleotides, phosphodiester linked, end blocked with an inverted T at both the 5′ and 3′ ends (all 2'-O-methyl, all phosphodiester, 5' [invdT], 3' [invdT], T or U not given here)
survival of treated animals (Pseudomonas aeruginosa [4]; cyclophosphamide-treated mice, 10^9 CFU topically on burn): 100% | systemic Pseudomonas infection in treated animals (Pseudomonas aeruginosa [4]): free of systemic Pseudomonas infections | outcome of Strep. pyogenes skin infection (Strep. pyogenes): completely cleared up the infection, swelling, inflammation, and sensitivity to touch | furuncle size (Staphylococcal furuncle; 1.5 cm furuncle, after 8 hours of treatment, 100 μl, 18.9 mMolar in water, pH 1.5): approximately 0.5 cm | size of remaining pinkish area of the furuncle (Staphylococcal furuncle; [12]): < 0.5 cm | swelling, pain, inflammation of furuncle (Staphylococcal furuncle; [12]): virtually no swelling, pain, or inflammation | survival of treated mice (Pseudomonas aeruginosa [5]; 10^6 or 10^7 CFU S.C. after burn, treatment I.V. (40% of dose) and S.C., 40 treated mice, pH 1.5): 100% | Pseudomonas bacteria in the spleen, liver, or blood (Pseudomonas aeruginosa [5]; treated surviving mice sacrificed and checked for sepsis): not detected | effectiveness in vehicle mixture (water/ethanol/propylene glycol) compared with water (Pseudomonas aeruginosa [6]; otoscopic examination, 2 mMolar in vehicle mixture vs 2.8 mMolar in water): slightly more effective | outcome of ear infections by otoscopic examination (Pseudomonas aeruginosa [6]; two daily topical applications, pH 1.5, by day 7 post infection (4 days after treatment began)): completely cured

HO—CH2CH2CH2CH2-GGG-CH2CH2CH2CH2—OH [compound 5]
# Survivors/Total Animals Tested ([2]; mouse, in vivo): 3/5 | % Survival ([2]; mouse, in vivo): 60%

114.21: 2′-O-methyl substituted ribonucleotides phosphodiester linked with 5′ and 3′ inverted T end-blocking, sequence GGAACGCGCCATTGGTATATC (all 2'-O-methyl, all phosphodiester, 5' [invdT], 3' [invdT], T or U not given here)
CFU/ml (Strep. mutans; pH 3): 0 CFU/ml | CFU/ml (Strep. mutans; pH 7): 10^7 CFU/ml | Inhibition (%) (Strep. mutans; pH 3): 100% | Inhibition (%) (Strep. mutans; pH 7): 0%

Homopolymer, 12 A: AAAAAAAAAAAA, 2′-O-methyl substituted ribonucleotides phosphodiester linked, 3′ and 5′ butanol end-blocking ({BuOH}-mAmAmAmAmAmAmAmAmAmAmAmA-{BuOH})
Inhibition (%) [1]: 100% | Inhibition (%) (S. aureus ACC # 13301): 100%

HO—CH2CH2CH2CH2-G-CH2CH2CH2CH2—OH [compound 3]
# Survivors/Total Animals Tested [2, 13]: 3/5 | % Survival [2, 13]: 60%

HO—CH2CH2CH2CH2—UUU—CH2CH2CH2CH2—OH [compound 4]
# Survivors/Total Animals Tested ([2]; mouse, in vivo): 2/5 | % Survival ([2]; mouse, in vivo): 40%

Homopolymer, 12 U: UUUUUUUUUUUU, 2′-O-methyl substituted ribonucleotides phosphodiester linked, 3′ and 5′ butanol end-blocking (2'-O-methyl; butanol end caps)
Inhibition (%) [1]: 100% | Inhibition (%) (S. aureus ACC # 13301): 100%
